≈ marks a conversion by molar mass, not a printed value. Calls of active or inactive are those of the source. The calls are words filed in the database; no cut-off is given here. Peptide text beside a SMILES is read from it. * marks the point of attachment. Myristoyl = CCCCCCCCCCCCCC(=O)*; Lauroyl = CCCCCCCCCCCC(=O)*; Octanoyl = CCCCCCCC(=O)*; Hexanoyl = CCCCCC(=O)*
Tests used:
Pseudomonas aeruginosa [1] = assay: Antibacterial activity against Pseudomonas aeruginosa MIDLANDS clinical isolate after 16 to 20 hrs by microdilution assay; format: functional
Pseudomonas aeruginosa [2] = assay: Antibacterial activity against Pseudomonas aeruginosa kl 1.1 clinical isolate after 16 to 20 hrs by microdilution assay; format: functional
Pseudomonas aeruginosa [3] = assay: Antibacterial activity against Pseudomonas aeruginosa VW178 clinical isolate after 16 to 20 hrs by microdilution assay; format: functional
Pseudomonas aeruginosa [4] = assay: Antibacterial activity against Pseudomonas aeruginosa KD557 clinical isolate after 16 to 20 hrs by microdilution assay; format: functional
Pseudomonas aeruginosa [5] = assay: Antibacterial activity against Pseudomonas aeruginosa VW1485 clinical isolate after 16 to 20 hrs by microdilution assay; format: functional
Pseudomonas aeruginosa [6] = assay: Antibacterial activity against Pseudomonas aeruginosa VW1471 clinical isolate after 16 to 20 hrs by microdilution assay; format: functional
Pseudomonas aeruginosa [7] = assay: Antibacterial activity against Pseudomonas aeruginosa LES400 clinical isolate after 16 to 20 hrs by microdilution assay; format: functional
Pseudomonas aeruginosa [8] = assay: Antibacterial activity against Pseudomonas aeruginosa KD491 clinical isolate after 16 to 20 hrs by microdilution assay; format: functional
Pseudomonas aeruginosa [9] = assay: Antibacterial activity against Pseudomonas aeruginosa kl 3.2 clinical isolate after 16 to 20 hrs by microdilution assay; format: functional
Pseudomonas aeruginosa [10] = assay: Antibacterial activity against Pseudomonas aeruginosa VW0247 clinical isolate after 16 to 20 hrs by microdilution assay; format: functional
Pseudomonas aeruginosa [11] = assay: Antibacterial activity against Pseudomonas aeruginosa VW313 clinical isolate after 16 to 20 hrs by microdilution assay; format: functional
Pseudomonas aeruginosa [12] = assay: Antibacterial activity against Pseudomonas aeruginosa LESB58 clinical isolate after 16 to 20 hrs by microdilution assay; format: functional
Pseudomonas aeruginosa [13] = assay: Antibacterial activity against Pseudomonas aeruginosa Clone C clinical isolate after 16 to 20 hrs by microdilution assay; format: functional
Pseudomonas aeruginosa [14] = assay: Antibacterial activity against Pseudomonas aeruginosa VW1540 clinical isolate after 16 to 20 hrs by microdilution assay; format: functional
Pseudomonas aeruginosa [15] = assay: Antibacterial activity against Pseudomonas aeruginosa VW1501 clinical isolate after 16 to 20 hrs by microdilution assay; format: functional
Pseudomonas aeruginosa [16] = assay: Antibacterial activity against Pseudomonas aeruginosa VW1633 clinical isolate after 16 to 20 hrs by microdilution assay; format: functional
Pseudomonas aeruginosa [17] = assay: Antibacterial activity against Pseudomonas aeruginosa LES431 clinical isolate after 16 to 20 hrs by microdilution assay; format: functional
Pseudomonas aeruginosa [18] = assay: Antibacterial activity against Pseudomonas aeruginosa D599 clinical isolate after 16 to 20 hrs by microdilution assay; format: functional
Pseudomonas aeruginosa [19] = assay: Antibacterial activity against Pseudomonas aeruginosa PAO1 clinical isolate after 16 to 20 hrs by microdilution assay; format: functional
Pseudomonas aeruginosa [20] = assay: Antibacterial activity against Pseudomonas aeruginosa PAO1 clinical isolate assessed as delay in growth rate in exponential phase of bacterial growth curve at 0.25 ug/ml measured every 15 mins by microtiter plate reader method; format: functional, organism-based
Pseudomonas aeruginosa [21] = assay: Antibacterial activity against Pseudomonas aeruginosa VW1538 clinical isolate after 16 to 20 hrs by microdilution assay; format: functional
Pseudomonas aeruginosa [22] = assay: Antibacterial activity against Pseudomonas aeruginosa Clone C clinical isolate assessed as delay in growth rate in exponential phase of bacterial growth curve at 0.25 ug/ml measured every 15 mins by microtiter plate reader method; format: functional, organism-based
Pseudomonas aeruginosa [23] = assay: Antibacterial activity against Pseudomonas aeruginosa KD491 clinical isolate assessed as delay in growth rate in exponential phase of bacterial growth curve at 1 ug/ml measured every 15 mins by microtiter plate reader method; format: functional, organism-based
Pseudomonas aeruginosa [24] = assay: Antibacterial activity against Pseudomonas aeruginosa LESB58 clinical isolate assessed as delay in growth rate in exponential phase of bacterial growth curve at 1 ug/ml measured every 15 mins by microtiter plate reader method; format: functional, organism-based

SMILES: C[C@@H](O)[C@H]1C(=O)N2C(C(=O)O)=C(S[C@@H]3CN[C@H](C(=O)N(C)C)C3)[C@H](C)[C@H]12 [MEROPENEM]
- MIC (Pseudomonas aeruginosa [1]): 16 µg/mL (≈ 41.7 µM)
- MIC (Pseudomonas aeruginosa [2]): 4 µg/mL (≈ 10.4 µM)
- MIC (Pseudomonas aeruginosa [3]): 2 µg/mL (≈ 5.22 µM)
- MIC (Pseudomonas aeruginosa [4]): 1 µg/mL (≈ 2.61 µM)
- MIC (Pseudomonas aeruginosa [5]): 0.25 µg/mL (≈ 0.652 µM)
- MIC (Pseudomonas aeruginosa [6]): 32 µg/mL (≈ 83.4 µM)
- MIC (Pseudomonas aeruginosa [7]): 2 µg/mL (≈ 5.22 µM)
- MIC (Pseudomonas aeruginosa [8]): 16 µg/mL (≈ 41.7 µM)
- MIC (Pseudomonas aeruginosa [9]): 4 µg/mL (≈ 10.4 µM)
- MIC (Pseudomonas aeruginosa [10]): 0.25 µg/mL (≈ 0.652 µM)
- MIC (Pseudomonas aeruginosa [11]): 16 µg/mL (≈ 41.7 µM)
- MIC (Pseudomonas aeruginosa [12]): 2 µg/mL (≈ 5.22 µM)
- MIC (Pseudomonas aeruginosa [13]): 2 µg/mL (≈ 5.22 µM)
- MIC (Pseudomonas aeruginosa [14]): 1 µg/mL (≈ 2.61 µM)
- MIC (Pseudomonas aeruginosa [15]): 0.25 µg/mL (≈ 0.652 µM)
- MIC (Pseudomonas aeruginosa [16]): 1 µg/mL (≈ 2.61 µM)
- MIC (Pseudomonas aeruginosa [17]): 8 µg/mL (≈ 20.9 µM)
- MIC (Pseudomonas aeruginosa [18]): 0.5 µg/mL (≈ 1.3 µM)
- MIC (Pseudomonas aeruginosa [19]): 2 µg/mL (≈ 5.22 µM)

SMILES: CCCCCCCC(=O)N[C@@H](CCCNC(=N)N)C(=O)N[C@@H](Cc1c[nH]c2ccccc12)C(=O)N[C@@H](CCCNC(=N)N)C(=O)N[C@@H](Cc1c[nH]c2ccccc12)C(=O)N[C@@H](CCCNC(=N)N)C(=O)N[C@@H](Cc1c[nH]c2ccccc12)C(=O)N[C@@H](CCCCN)C(=O)O (Octanoyl-RWRWRWK-OH)
- MIC (Pseudomonas aeruginosa [8]): 16 µg/mL (≈ 12.3 µM)
- MIC (Pseudomonas aeruginosa [16]): 32 µg/mL (≈ 24.6 µM)
- MIC (Pseudomonas aeruginosa [17]): 64 µg/mL (≈ 49.2 µM)

SMILES: CCCCCC(=O)N[C@@H](CCCNC(=N)N)C(=O)N[C@@H](Cc1c[nH]c2ccccc12)C(=O)N[C@@H](CCCNC(=N)N)C(=O)N[C@@H](Cc1c[nH]c2ccccc12)C(=O)N[C@@H](CCCNC(=N)N)C(=O)N[C@@H](Cc1c[nH]c2ccccc12)C(=O)N[C@@H](CCCCN)C(=O)O (Hexanoyl-RWRWRWK-OH)
- MIC (Pseudomonas aeruginosa [8]): 64 µg/mL (≈ 50.3 µM)
- MIC (Pseudomonas aeruginosa [16]): 32 µg/mL (≈ 25.2 µM)
- MIC (Pseudomonas aeruginosa [17]): > 128 µg/mL

SMILES: NC[C@H]1O[C@H](O[C@H]2[C@H](O)[C@@H](O[C@H]3O[C@H](CO)[C@@H](O)[C@H](N)[C@H]3O)[C@H](N)C[C@@H]2N)[C@H](N)C[C@@H]1O [TOBRAMYCIN]
- Activity (Pseudomonas aeruginosa [20]): Active
- MIC (Pseudomonas aeruginosa [1]): 2 µg/mL (≈ 4.28 µM)
- MIC (Pseudomonas aeruginosa [2]): 4 µg/mL (≈ 8.56 µM)
- MIC (Pseudomonas aeruginosa [3]): 32 µg/mL (≈ 68.4 µM)
- MIC (Pseudomonas aeruginosa [4]): 1 µg/mL (≈ 2.14 µM)
- MIC (Pseudomonas aeruginosa [21]): 8 µg/mL (≈ 17.1 µM)
- MIC (Pseudomonas aeruginosa [5]): 16 µg/mL (≈ 34.2 µM)
- MIC (Pseudomonas aeruginosa [6]): 8 µg/mL (≈ 17.1 µM)
- MIC (Pseudomonas aeruginosa [7]): 8 µg/mL (≈ 17.1 µM)
- MIC (Pseudomonas aeruginosa [8]): 8 µg/mL (≈ 17.1 µM)
- MIC (Pseudomonas aeruginosa [9]): 16 µg/mL (≈ 34.2 µM)
- Activity (Pseudomonas aeruginosa [22]): Active
- MIC (Pseudomonas aeruginosa [10]): 4 µg/mL (≈ 8.56 µM)
- MIC (Pseudomonas aeruginosa [11]): 16 µg/mL (≈ 34.2 µM)
- MIC (Pseudomonas aeruginosa [12]): 8 µg/mL (≈ 17.1 µM)
- MIC (Pseudomonas aeruginosa [13]): 1 µg/mL (≈ 2.14 µM)
- MIC (Pseudomonas aeruginosa [14]): 0.125 µg/mL (≈ 0.267 µM)
- MIC (Pseudomonas aeruginosa [15]): 4 µg/mL (≈ 8.56 µM)
- MIC (Pseudomonas aeruginosa [16]): 0.125 µg/mL (≈ 0.267 µM)
- Activity (Pseudomonas aeruginosa [23]): Active
- MIC (Pseudomonas aeruginosa [17]): 2 µg/mL (≈ 4.28 µM)
- Activity (Pseudomonas aeruginosa [24]): Active
- MIC (Pseudomonas aeruginosa [18]): 0.5 µg/mL (≈ 1.07 µM)
- MIC (Pseudomonas aeruginosa [19]): 2 µg/mL (≈ 4.28 µM)

SMILES: CCCCCCCCCCCCCC(=O)NCCCC[C@H](NC(=O)[C@H](Cc1c[nH]c2ccccc12)NC(=O)[C@H](CCCNC(=N)N)NC(=O)[C@H](Cc1c[nH]c2ccccc12)NC(=O)[C@H](CCCNC(=N)N)NC(=O)[C@H](Cc1c[nH]c2ccccc12)NC(=O)[C@@H](N)CCCNC(=N)N)C(=O)O (H-RWRWRWK(Myristoyl)-OH)
- MIC (Pseudomonas aeruginosa [8]): > 128 µg/mL
- MIC (Pseudomonas aeruginosa [16]): > 128 µg/mL
- MIC (Pseudomonas aeruginosa [17]): 128 µg/mL (≈ 92.5 µM)

SMILES: CCCCCCCCCCCCCC(=O)N[C@@H](CCCNC(=N)N)C(=O)N[C@@H](Cc1c[nH]c2ccccc12)C(=O)N[C@@H](CCCNC(=N)N)C(=O)N[C@@H](Cc1c[nH]c2ccccc12)C(=O)N[C@@H](CCCNC(=N)N)C(=O)N[C@@H](Cc1c[nH]c2ccccc12)C(=O)N[C@@H](CCCCN)C(=O)O (Myristoyl-RWRWRWK-OH)
- MIC (Pseudomonas aeruginosa [8]): > 128 µg/mL
- MIC (Pseudomonas aeruginosa [16]): > 128 µg/mL
- MIC (Pseudomonas aeruginosa [17]): > 128 µg/mL

SMILES: CCCCCCCCCCCC(=O)N[C@@H](CCCNC(=N)N)C(=O)N[C@@H](Cc1c[nH]c2ccccc12)C(=O)N[C@@H](CCCNC(=N)N)C(=O)N[C@@H](Cc1c[nH]c2ccccc12)C(=O)N[C@@H](CCCNC(=N)N)C(=O)N[C@@H](Cc1c[nH]c2ccccc12)C(=O)N[C@@H](CCCCN)C(=O)O (Lauroyl-RWRWRWK-OH)
- MIC (Pseudomonas aeruginosa [8]): > 128 µg/mL
- MIC (Pseudomonas aeruginosa [16]): > 128 µg/mL
- MIC (Pseudomonas aeruginosa [17]): 64 µg/mL (≈ 47.2 µM)
